Data as given in patent publication US20260262643A1, “HERBICIDAL BENZOXAZINES” (FMC CORPORATION, priority 2022, published 2026).

Legend:
goosegrass [1] = assay: Test A preemergence; type: in vivo, Eleusine indica
Outline: (§1)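 Plants were grown in loam and sand and treated preemergence or postemergence (one- to two-leaf stage, 2–10 cm) with compound in solvent plus surfactant. Response was scored against untreated controls after 10 greenhouse days, where 0 means no effect and 100 complete control.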

foxtail, giant [2] = assay: Test A preemergence; type: in vivo, Setaria faberi
Outline: as §1

ryegrass, Italian [3] = assay: Test A postemergence; type: in vivo, Lolium multiflorum
Outline: as §1

blackgrass [4] = assay: Test A postemergence; type: in vivo, Alopecurus myosuroides
Outline: as §1

soybean [5] = assay: Test A preemergence; type: in vivo, Glycine max
Outline: as §1

pigweed, palmer [6] = assay: Test A preemergence; type: in vivo, Amaranthus palmeri
Outline: as §1

blackgrass [7] = assay: Test A preemergence; type: in vivo, Alopecurus myosuroides
Outline: as §1

foxtail, giant [8] = assay: Test A postemergence; type: in vivo, Setaria faberi
Outline: as §1

rice = assay: Test B flooded paddy test; type: in vivo, Oryza sativa; settings: 250 g ai/ha, Flood, 13 days, 0 to 100 scale (0 no effect, 100 complete control)
Outline: (§2)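 Each species was raised to the 2-leaf stage. At treatment, each pot received floodwater 3 cm deep, with the chemical delivered into the water. Greenhouse holding followed for 13 days, then percent control was estimated visually versus untreated pots.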

corn [9] = assay: Test A postemergence; type: in vivo, Zea mays
Outline: as §1

barnyardgrass = assay: Test B flooded paddy test; type: in vivo, Echinochloa crus-galli; settings: 250 g ai/ha, Flood, 13 days, 0 to 100 scale (0 no effect, 100 complete control)
Outline: as §2

kochia [10] = assay: Test A postemergence; type: in vivo, Bassia scoparia
Outline: as §1

ragweed [11] = assay: Test A postemergence; type: in vivo, Ambrosia artemisiifolia
Outline: as §1

wheat [12] = assay: Test A preemergence; type: in vivo, Triticum aestivum
Outline: as §1

ducksalad = assay: Test B flooded paddy test; type: in vivo, Heteranthera limosa; settings: 250 g ai/ha, Flood, 13 days, 0 to 100 scale (0 no effect, 100 complete control)
Outline: as §2

ragweed [13] = assay: Test A preemergence; type: in vivo, Ambrosia artemisiifolia
Outline: as §1

corn [14] = assay: Test A preemergence; type: in vivo, Zea mays
Outline: as §1

goosegrass [15] = assay: Test A postemergence; type: in vivo, Eleusine indica
Outline: as §1

wheat [16] = assay: Test A postemergence; type: in vivo, Triticum aestivum
Outline: as §1

oat, wild [17] = assay: Test A postemergence; type: in vivo, Avena fatua
Outline: as §1

ryegrass, Italian [18] = assay: Test A preemergence; type: in vivo, Lolium multiflorum
Outline: as §1

galium = assay: Test A postemergence; type: in vivo, Galium aparine
Outline: as §1

soybean [19] = assay: Test A postemergence; type: in vivo, Glycine max
Outline: as §1

kochia [20] = assay: Test A preemergence; type: in vivo, Bassia scoparia
Outline: as §1

horseweed = assay: Test A postemergence; type: in vivo, Erigeron canadensis
Outline: as §1

oat, wild [21] = assay: Test A preemergence; type: in vivo, Avena fatua
Outline: as §1

sedge, umbrella = assay: Test B flooded paddy test; type: in vivo, Cyperus difformis; settings: 250 g ai/ha, Flood, 13 days, 0 to 100 scale (0 no effect, 100 complete control)
Outline: as §2

pigweed, palmer [22] = assay: Test A postemergence; type: in vivo, Amaranthus palmeri
Outline: as §1

[23] = 125 g ai/ha, visual injury after 10 days, 0 to 100 scale, 0 is no effect, 100 is complete control
[24] = 500 g ai/ha, 0 to 100 scale (0 no effect, 100 complete control), 10 days
[25] = 125 g ai/ha, postemergence, 10 days, visual injury, 0 to 100 scale (0 no effect, 100 complete control)
[26] = 500 g ai/ha, Postemergence, 0 to 100 scale

## Cc1cccc2c1O[C@@H](C)CN2C(=O)c1cccc(-n2cnc(C(C)C)n2)c1 [Compound 55]
Goosegrass [1]; [23]
  Plant response rating, Goosegrass: 100
Goosegrass [1]; [24]
  Plant response rating, Goosegrass: 100
foxtail, giant [2]; [23]
  Plant response rating, Foxtail, Giant: 100
foxtail, giant [2]; [24]
  Plant response rating, Foxtail, Giant: 100
ryegrass, Italian [3]; [25]
  Plant response rating, Ryegrass, Italian: 50
ryegrass, Italian [3]; [26]
  Plant response rating, Ryegrass, Italian: 100
Blackgrass [4]; [25]
  Plant response rating, Blackgrass: 60
Blackgrass [4]; [26]
  Plant response rating, Blackgrass: 80
Soybean [5]; [23]
  Plant response rating, Soybean: 30
Soybean [5]; [24]
  Plant response rating, Soybean: 100
pigweed, palmer [6]; [23]
  Plant response rating, Pigweed, Palmer: 80
pigweed, palmer [6]; [24]
  Plant response rating, Pigweed, Palmer: 90
Blackgrass [7]; [23]
  Plant response rating, Blackgrass: 80
Blackgrass [7]; [24]
  Plant response rating, Blackgrass: 90
foxtail, giant [8]; [25]
  Plant response rating, Foxtail, Giant: 100
foxtail, giant [8]; [26]
  Plant response rating, Foxtail, Giant: 100
rice
  Plant response rating, Rice: 0
Corn [9]; [25]
  Plant response rating, Corn: 40
Corn [9]; [26]
  Plant response rating, Corn: 80
barnyardgrass
  Plant response rating, Barnyardgrass: 30
Kochia [10]; [25]
  Plant response rating, Kochia: 80
Kochia [10]; [26]
  Plant response rating, Kochia: 90
Ragweed [11]; [25]
  Plant response rating, Ragweed: 50
Ragweed [11]; [26]
  Plant response rating, Ragweed: 70
Wheat [12]; [23]
  Plant response rating, Wheat: 40
Wheat [12]; [24]
  Plant response rating, Wheat: 60
ducksalad
  Plant response rating, Ducksalad: 75
Ragweed [13]; [23]
  Plant response rating, Ragweed: 20
Ragweed [13]; [24]
  Plant response rating, Ragweed: 40
Corn [14]; [23]
  Plant response rating, Corn: 0
Corn [14]; [24]
  Plant response rating, Corn: 30
Goosegrass [15]; [25]
  Plant response rating, Goosegrass: 50
Goosegrass [15]; [26]
  Plant response rating, Goosegrass: 90
Wheat [16]; [25]
  Plant response rating, Wheat: 40
Wheat [16]; [26]
  Plant response rating, Wheat: 60
oat, wild [17]; [25]
  Plant response rating, Oat, Wild: 40
oat, wild [17]; [26]
  Plant response rating, Oat, Wild: 80
ryegrass, Italian [18]; [23]
  Plant response rating, Ryegrass, Italian: 80
ryegrass, Italian [18]; [24]
  Plant response rating, Ryegrass, Italian: 100
galium; [25]
  Plant response rating, Galium: 100
galium; [26]
  Plant response rating, Galium: 100
Soybean [19]; [25]
  Plant response rating, Soybean: 100
Soybean [19]; [26]
  Plant response rating, Soybean: 100
Kochia [20]; [23]
  Plant response rating, Kochia: 90
Kochia [20]; [24]
  Plant response rating, Kochia: 100
horseweed; [25]
  Plant response rating, Horseweed: 0
horseweed; [26]
  Plant response rating, Horseweed: 30
oat, wild [21]; [23]
  Plant response rating, Oat, Wild: 70
oat, wild [21]; [24]
  Plant response rating, Oat, Wild: 90
sedge, umbrella
  Plant response rating, Sedge, Umbrella: 95
pigweed, palmer [22]; [25]
  Plant response rating, Pigweed, Palmer: 40
pigweed, palmer [22]; [26]
  Plant response rating, Pigweed, Palmer: 60
